Data: patent US9957264B2 (Merck Sharp & Dohme Corp., priority 2013, dated 2018)

How the values were obtained:
[1] = biological target: JAK1 (recombinant purified GST-tagged catalytic domain) (Homo sapiens (Human), UniProt P23458); assay: Jak Biochemical HTRF Assay (JAK1); conditions: [ATP] 31.8 μM
How it was run: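 Phosphorylation of a common biotinylated peptide by each catalytic domain is measured by HTRF. The ATP-started reaction runs 120 min at room temperature before EDTA quench and detection.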

[2] = biological target: JAK2 (recombinant purified GST-tagged catalytic domain) (Homo sapiens (Human), UniProt O60674); assay: Jak Biochemical HTRF Assay (JAK2); conditions: [ATP] 8.5 μM
Chain of JAK2 (recombinant purified GST-tagged catalytic domain) (O60674 849-1124): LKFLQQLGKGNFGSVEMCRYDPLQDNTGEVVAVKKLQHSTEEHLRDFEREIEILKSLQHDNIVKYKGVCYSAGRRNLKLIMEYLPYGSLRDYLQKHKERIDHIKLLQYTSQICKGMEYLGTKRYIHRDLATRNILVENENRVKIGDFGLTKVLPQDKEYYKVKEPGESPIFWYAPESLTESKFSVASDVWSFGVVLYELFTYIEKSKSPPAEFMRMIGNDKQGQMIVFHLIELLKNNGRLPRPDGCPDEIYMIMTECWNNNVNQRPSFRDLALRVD
Experimental: Jak Biochemical HTRF Assay Protocol
The ability of compounds to inhibit the activity of JAK1, JAK2, JAK3, and Tyk2 was measured using a recombinant purified GST-tagged catalytic domain for each enzyme (Invitrogen JAK1 #M4290, JAK2 #M4290, JAK3 #M4290, Tyk2 #M4290) in an HTRF format biochemical assay. […] The basic assay protocol is as follows: First, 250 nL of diluted compounds in DMSO were dispensed into the wells of a dry 384-well Black plate (Greiner #781076) using a Labcyte Echo 555 acoustic dispenser. Subsequent reagent additions employed an Agilent Bravo. […] After equilibration, 2 μL of 10×ATP in 1× assay buffer was added to initiate the kinase reaction and the plates were shaken and then incubated at room temperature for 120 minutes. […] Plates were shaken and centrifuged and then incubated 60 minutes at room temperature and then read on a Perkin Elmer Envision (λex=337 nm, λem=665 and 615 nm, TRF delay time=20 μs). HTRF signal=10,000*665 nm reading/615 nm reading. After normalization to untreated controls, the percent inhibition of the HTRF signal at each compound concentration was calculated. The plot of percent inhibition versus the log of compound concentration was fit with a 4-parameter dose response equation to calculate IC50 values.
Final reaction conditions were:
Examples of the instant invention were evaluated in JAK1 and JAK2 in vitro binding assays as described above.

Chain of JAK1 (recombinant purified GST-tagged catalytic domain) (P23458 875-1153): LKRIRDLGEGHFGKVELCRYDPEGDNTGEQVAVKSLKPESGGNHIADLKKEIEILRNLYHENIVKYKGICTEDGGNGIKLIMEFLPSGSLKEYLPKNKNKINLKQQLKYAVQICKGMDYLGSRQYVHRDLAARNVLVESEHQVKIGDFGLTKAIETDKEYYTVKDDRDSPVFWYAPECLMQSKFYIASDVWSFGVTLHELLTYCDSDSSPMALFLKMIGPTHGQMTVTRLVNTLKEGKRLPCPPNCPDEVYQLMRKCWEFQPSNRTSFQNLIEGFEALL

SMILES | IC50 [1] | IC50 [2]
COC(=O)[C@H]1CC[C@](CC#N)(n2nc(Nc3ccc(S(C)(=O)=O)cc3)c3c(=O)[nH]ccc32)CO1 (single isomer, unassigned) [Example 5-34, (2S,5S or 2R,5R)-methyl 5-(cyanomethyl)-5-(3-((4-(methylsulfonyl)phenyl)amino)-4-oxo-4,5-dihydro-1H-pyrazolo[4,3-c]pyridin-1-yl)tetrahydro-2H-pyran-2-carboxylate] | 4.74 nM | 22.6 nM
N#CC[C@]1(n2nc(Nc3ccc(C#N)cc3)c3c(=O)[nH]ccc32)CCOC1 (single isomer, unassigned) [Example 5-240, 4-({1-[(3S or 3R)-3-(cyanomethyl)tetrahydrofuran-3-yl]-4-oxo-4,5-dihydro-1H-pyrazolo[4,3-c]pyridin-3-yl}amino)benzonitrile] | 13 nM | 79.9 nM
CC(C)(C)OC(=O)N1CCC(CC#N)(n2nc(Nc3ccc([C@@]4(C(F)(F)F)CCCCN4)cc3)c3c(=O)[nH]ccc32)CC1 (single isomer, unassigned) [Example 21-17, (R or S)-tert-butyl 4-(cyanomethyl)-4-(4-oxo-3-(4-(2-(trifluoromethyl)piperidin-2-yl)phenylamino)-4,5-dihydropyrazolo[4,3-c]pyridin-1-yl)piperidine-1-carboxylate] | 0.63 nM | 0.58 nM
Cc1cc(Nc2nn([C@@]3(CC#N)CCOC[C@H]3F)c3cc[nH]c(=O)c23)ccc1C(=O)N1CCSCC1 (single isomer, unassigned) [Example 5-261, 2-((3S,4S or 3R,4R)-3-fluoro-4-(3-(3-methyl-4-(thiomorpholine-4-carbonyl)phenylamino)-4-oxo-4,5-dihydropyrazolo[4,3-c]pyridin-1-yl)-tetrahydro-2H-pyran-4-yl)acetonitrile] | 2.26 nM | 2.74 nM
N#CC[C@@]1(n2nc(Nc3ccc4nccc(F)c4c3)c3c(=O)[nH]ccc32)CCOC1 (single isomer, unassigned) [Example 5-245, [(3R or 3S)-3-{3-[(4-fluoroquinolin-6-yl)amino]-4-oxo-4,5-dihydro-1H-pyrazolo[4,3-c]pyridin-1-yl}tetrahydrofuran-3-yl]acetonitrile] | 3.93 nM | 42.3 nM
N#CCC1(n2nc(Nc3ccc4c(c3)COC4=O)c3c(=O)[nH]ccc32)CCCC1 [Example 5-125, 2-(1-(4-oxo-3-((1-oxo-1,3-dihydroisobenzofuran-5-yl)amino)-4,5-dihydro-1H-pyrazolo[4,3-c]pyridin-1-yl)cyclopentyl)acetonitrile] | 0.27 nM | 2.71 nM
CC(C)(C)OC(=O)C(C)(C)N1Cc2cc(Nc3nn(C4(CC#N)CCCC4)c4cc[nH]c(=O)c34)ccc2C1=O [Example 5-140, tert-butyl 2-(5-((1-(1-(cyanomethyl)cyclopentyl)-4-oxo-4,5-dihydro-1H-pyrazolo[4,3-c]pyridin-3-yl)amino)-1-oxoisoindolin-2-yl)-2-methylpropanoate] | 0.32 nM | 0.74 nM
CN(C)S(=O)(=O)c1ccc(Nc2nn(C3(CC#N)CCN(C(=O)CC4CC4)CC3)c3cc[nH]c(=O)c23)cc1 [Example 9-10, 4-({1-[4-(cyanomethyl)-1-(cyclopropylacetyl)piperidin-4-yl]-4-oxo-4,5-dihydro-1H-pyrazolo[4,3-c]pyridin-3-yl}amino)-N,N-dimethylbenzenesulfonamide] | 0.17 nM | 1.07 nM
CN(C(C)(C)C(=O)OC(C)(C)C)S(=O)(=O)c1ccc(Nc2nn(C3(CC#N)CCCC3)c3cc[nH]c(=O)c23)cc1 [Example 5-137, tert-butyl 2-(4-((1-(1-(cyanomethyl)cyclopentyl)-4-oxo-4,5-dihydro-1H-pyrazolo[4,3-c]pyridin-3-yl)amino)-N-methylphenylsulfonamido)-2-methylpropanoate] | 1.9 nM | 5.85 nM
N#CCC1(n2nc(Nc3ccc(C#N)cc3)c3c(=O)[nH]ccc32)CCCC1 [Example 5-124, 4-((1-(1-(cyanomethyl)cyclopentyl)-4-oxo-4,5-dihydro-1H-pyrazolo[4,3-c]pyridin-3-yl)amino) benzonitrile] | 0.58 nM | 3.69 nM
N#CC[C@@]1(n2nc(Nc3ccc(S(=O)(=O)C4CCCCC4)cc3)c3c(=O)[nH]ccc32)CCCOC1 [Example 5-193, [(3S)-3-(3-{[4-(cyclohexylsulfonyl)phenyl]amino}-4-oxo-4,5-dihydro-1H-pyrazolo[4,3-c]pyridin-1-yl)tetrahydro-2H-pyran-3-yl]acetonitrile] | 0.42 nM | 0.66 nM
CC(C)(C)OC(=O)N1CCC(CC#N)(n2nc(Nc3ccc4c(c3)CN(C(C)(C)C)S4(=O)=O)c3c(=O)[nH]ccc32)CC1 [Example 5-23, tert-butyl 4-{3-[(2-tert-butyl-1,1-dioxido-2,3-dihydro-1,2-benzisothiazol-5-yl)amino]-4-oxo-4,5-dihydro-1H-pyrazolo[4,3-c]pyridin-1-yl}-4-(cyanomethyl)piperidine-1-carboxylate] | 0.24 nM | 0.34 nM

These reach a lower IC50 [1]. Values come first.

IC50 [1] | IC50 [2] | SMILES
0.13 nM | 0.64 nM | CN(C)c1ccc2cc(Nc3nn([C@]4(CC#N)CC[C@@H](C(=O)OC(C)(C)C)OC4)c4cc[nH]c(=O)c34)ccc2n1 [Example 5-222, (2S,5S)-tert-butyl 5-(cyanomethyl)-5-(3-((2-(dimethylamino)quinolin-6-yl)amino)-4-oxo-4,5-dihydro-1H-pyrazolo[4,3-c]pyridin-1-yl)tetrahydro-2H-pyran-2-carboxylate]
0.13 nM | 0.29 nM | CN(C)S(=O)(=O)c1ccc(Nc2nn([C@]3(CC#N)CCCOC3)c3cc[nH]c(=O)c23)cc1 [Example 5-28, (S)-4-((1-(3-(cyanomethyl)tetrahydro-2H-pyran-3-yl)-4-oxo-4,5-dihydro-1H-pyrazolo[4,3-c]pyridin-3-yl)amino)-N,N-dimethyl benzenesulfonamide]
0.12 nM | 0.29 nM | CCOC(=O)N1CCC(CC#N)(n2nc(Nc3ccc(S(=O)(=O)N(C)C)cc3)c3c(=O)[nH]ccc32)CC1 [Example 10-5, ethyl 4-(cyanomethyl)-4-(3-((4-(N,N-dimethylsulfamoyl)phenyl)amino)-4-oxo-4,5-dihydro-1H-pyrazolo[4,3-c]pyridin-1-yl)piperidine-1-carboxylate]
0.12 nM | 64.2 nM | N#CC[C@]1(n2nc(Nc3ccc(Cl)c(F)c3)c3c(=O)[nH]ccc32)CC[C@H](NC2CCCCC2)CC1 [Example 18-21, Trans 2-(1-(3-((4-chloro-3-fluorophenyl)amino)-4-oxo-4,5-dihydro-1H-pyrazolo[4,3-c]pyridin-1-yl)-4-(cyclohexylamino)cyclohexyl)acetonitrile]
0.11 nM | 0.48 nM | CN(C)C(=O)c1ccc2cc(Nc3nn([C@]4(CC#N)CC[C@@H](C(=O)OC(C)(C)C)OC4)c4cc[nH]c(=O)c34)ccc2n1 [Example 5-238, (2S,5S)-tert-butyl 5-(cyanomethyl)-5-(3-((2-(dimethylcarbamoyl)quinolin-6-yl)amino)-4-oxo-4,5-dihydro-1H-pyrazolo[4,3-c]pyridin-1-yl)tetrahydro-2H-pyran-2-carboxylate]
0.1 nM | 0.31 nM | CC(C)(C)OC(=O)N1CCC(CC#N)(n2nc(Nc3ccc4c(c3)CCS4(=O)=O)c3c(=O)[nH]ccc32)CC1 [Example 5-82, tert-butyl 4-(cyanomethyl)-4-(3-((1,1-dioxido-2,3-dihydrobenzo[d]thiophen-5-yl)amino)-4-oxo-4,5-dihydro-1H-pyrazolo[4,3-c]pyridin-1-yl)piperidine-1-carboxylate]
0.07 nM | 0.11 nM | CC(O)(c1ccc(Nc2nn([C@@]3(CC#N)CCCC[C@H]3F)c3cc[nH]c(=O)c23)cc1)C(F)(F)F (single isomer, unassigned) [Example 5-86, {(1R,2R)-2-fluoro-1-[4-oxo-3-({4-[(1R or 1S)-2,2,2-trifluoro-1-hydroxy-1-methylethyl]phenyl}amino)-4,5-dihydro-1H-pyrazolo[4,3-c]pyridin-1-yl]cyclohexyl}acetonitrile]
0.07 nM | 0.2 nM | CC(C)(C)OC(=O)[C@@H]1CC[C@@](CC#N)(n2nc(Nc3ccc4c(c3)CN(CC(F)(F)F)C4=O)c3c(=O)[nH]ccc32)CO1 [Example 5-95, (2S,5S)-tert-butyl 5-(cyanomethyl)-5-(4-oxo-3-((1-oxo-2-(2,2,2-trifluoroethyl)isoindolin-5-yl)amino)-4,5-dihydro-1H-pyrazolo[4,3-c]pyridin-1-yl)tetrahydro-2H-pyran-2-carboxylate]
0.04 nM | 0.05 nM | CC(C)S(=O)(=O)c1ccc(Nc2nn([C@@]3(CC#N)CCCC[C@H]3F)c3cc[nH]c(=O)c23)cc1 [Example 5-87, {(1R,2R)-2-fluoro-1-[3-({4-[(1-methylethyl)sulfonyl]phenyl}amino)-4-oxo-4,5-dihydro-1H-pyrazolo[4,3-c]pyridin-1-yl]cyclohexyl}acetonitrile]
